{
  "source": "ChEMBL document CHEMBL1649403",
  "about": "“CYP1A2-mediated biotransformation of cardioactive 2-thienylidene-3,4-methylenedioxybenzoylhydrazine (LASSBio-294) by rat liver microsomes and human recombinant CYP enzymes” (Eur J Med Chem, 2011)",
  "key": {"Liver microsomes [1]": {"tested_on": "Liver microsomes", "assay": "Metabolic stability in rat liver microsomes in presence of non-selective cytochrome P450 inhibitor ketoconazole", "format": "ADME, Microsome"}, "Liver microsomes [2]": {"tested_on": "Liver microsomes", "assay": "Metabolic stability in rat liver microsomes in presence of CYP2D6 inhibitor quinidine", "format": "ADME, Microsome"}, "Liver microsomes [3]": {"tested_on": "Liver microsomes", "assay": "Metabolic stability in rat liver microsomes in presence of CYP2C9 inhibitor sulfaphenazole", "format": "ADME, Microsome"}, "Liver microsomes [4]": {"tested_on": "Liver microsomes", "assay": "Metabolic stability in rat liver microsomes in presence of CYP1A2 inhibitor furafylline", "format": "ADME, Microsome"}, "Cytochrome P450 2C9": {"target": "Cytochrome P450 2C9 (Homo sapiens, UniProt P11712)", "sequence (P11712 whole entry)": "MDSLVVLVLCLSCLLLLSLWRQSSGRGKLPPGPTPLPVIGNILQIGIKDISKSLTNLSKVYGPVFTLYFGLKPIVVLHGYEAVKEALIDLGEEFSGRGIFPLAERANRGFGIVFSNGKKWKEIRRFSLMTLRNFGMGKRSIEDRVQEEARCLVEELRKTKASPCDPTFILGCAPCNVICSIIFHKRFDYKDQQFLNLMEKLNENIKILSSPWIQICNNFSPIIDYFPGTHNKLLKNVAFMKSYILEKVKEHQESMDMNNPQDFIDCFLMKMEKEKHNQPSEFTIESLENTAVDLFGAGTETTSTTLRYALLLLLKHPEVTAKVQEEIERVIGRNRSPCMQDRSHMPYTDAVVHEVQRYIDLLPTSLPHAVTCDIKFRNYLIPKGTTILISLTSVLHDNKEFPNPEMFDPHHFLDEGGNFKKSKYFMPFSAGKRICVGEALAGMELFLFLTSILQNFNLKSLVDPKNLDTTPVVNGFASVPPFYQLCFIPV", "assay": "Activity of human recombinant CYP2C9 assessed as compound remaining", "format": "ADME", "settings": "recombinant enzyme"}, "Cytochrome P450 2C19": {"target": "Cytochrome P450 2C19 (Homo sapiens, UniProt P33261)", "sequence (P33261 whole entry)": "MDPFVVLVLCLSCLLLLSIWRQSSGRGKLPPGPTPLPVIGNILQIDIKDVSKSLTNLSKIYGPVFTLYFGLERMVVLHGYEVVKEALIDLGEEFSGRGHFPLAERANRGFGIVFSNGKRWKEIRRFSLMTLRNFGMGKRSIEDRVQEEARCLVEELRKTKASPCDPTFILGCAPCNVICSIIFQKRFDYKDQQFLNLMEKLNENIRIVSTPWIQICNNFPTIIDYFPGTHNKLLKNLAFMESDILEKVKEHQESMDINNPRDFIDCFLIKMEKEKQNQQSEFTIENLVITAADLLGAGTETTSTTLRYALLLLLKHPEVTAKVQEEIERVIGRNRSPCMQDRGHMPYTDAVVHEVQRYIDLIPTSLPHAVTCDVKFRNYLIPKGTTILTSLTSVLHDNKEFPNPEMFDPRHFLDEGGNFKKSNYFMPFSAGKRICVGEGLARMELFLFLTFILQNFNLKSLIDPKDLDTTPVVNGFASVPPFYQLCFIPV", "assay": "Activity of human recombinant CYP2C19 assessed as compound remaining", "format": "ADME", "settings": "recombinant enzyme"}, "Cytochrome P450 3A5": {"target": "Cytochrome P450 3A5 (Homo sapiens, UniProt P20815)", "sequence (P20815 whole entry)": "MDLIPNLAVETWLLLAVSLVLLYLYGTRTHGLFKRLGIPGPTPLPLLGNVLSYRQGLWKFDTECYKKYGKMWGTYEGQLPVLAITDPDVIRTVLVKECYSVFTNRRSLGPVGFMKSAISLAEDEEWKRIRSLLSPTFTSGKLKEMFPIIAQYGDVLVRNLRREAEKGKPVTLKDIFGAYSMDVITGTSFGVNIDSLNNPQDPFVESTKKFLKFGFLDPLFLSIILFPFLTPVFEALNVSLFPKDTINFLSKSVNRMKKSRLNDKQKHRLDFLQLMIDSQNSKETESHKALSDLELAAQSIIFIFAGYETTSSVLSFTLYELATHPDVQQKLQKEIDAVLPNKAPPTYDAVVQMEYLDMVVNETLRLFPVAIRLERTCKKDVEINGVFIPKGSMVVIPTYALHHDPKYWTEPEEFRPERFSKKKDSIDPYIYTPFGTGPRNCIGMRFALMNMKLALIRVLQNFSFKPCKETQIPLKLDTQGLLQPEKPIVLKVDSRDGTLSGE", "assay": "Activity of human recombinant CYP3A5 assessed as compound remaining", "format": "ADME", "settings": "recombinant enzyme"}, "Cytochrome P450 2C8": {"target": "T1, Cytochrome P450 2C8 (Homo sapiens, UniProt P10632)", "T1 sequence (P10632 whole entry)": "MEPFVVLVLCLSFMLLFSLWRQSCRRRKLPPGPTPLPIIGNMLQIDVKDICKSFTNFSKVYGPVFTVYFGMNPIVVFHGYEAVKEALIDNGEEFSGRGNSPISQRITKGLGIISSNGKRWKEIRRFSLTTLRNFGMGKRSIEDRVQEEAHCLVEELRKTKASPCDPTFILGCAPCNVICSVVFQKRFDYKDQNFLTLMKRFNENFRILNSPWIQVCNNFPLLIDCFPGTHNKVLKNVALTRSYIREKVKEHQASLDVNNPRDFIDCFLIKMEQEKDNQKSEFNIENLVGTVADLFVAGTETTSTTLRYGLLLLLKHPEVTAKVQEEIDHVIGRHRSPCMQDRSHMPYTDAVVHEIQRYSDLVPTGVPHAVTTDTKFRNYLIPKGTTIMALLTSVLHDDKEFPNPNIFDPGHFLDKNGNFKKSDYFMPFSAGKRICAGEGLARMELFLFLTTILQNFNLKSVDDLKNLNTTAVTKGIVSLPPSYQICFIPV", "assay": "Activity of human recombinant CYP2C8 assessed as compound remaining", "format": "ADME", "settings": "recombinant enzyme"}, "Cytochrome P450 1A2": {"target": "T2, Cytochrome P450 1A2 (Homo sapiens, UniProt P05177)", "T2 sequence (P05177 whole entry)": "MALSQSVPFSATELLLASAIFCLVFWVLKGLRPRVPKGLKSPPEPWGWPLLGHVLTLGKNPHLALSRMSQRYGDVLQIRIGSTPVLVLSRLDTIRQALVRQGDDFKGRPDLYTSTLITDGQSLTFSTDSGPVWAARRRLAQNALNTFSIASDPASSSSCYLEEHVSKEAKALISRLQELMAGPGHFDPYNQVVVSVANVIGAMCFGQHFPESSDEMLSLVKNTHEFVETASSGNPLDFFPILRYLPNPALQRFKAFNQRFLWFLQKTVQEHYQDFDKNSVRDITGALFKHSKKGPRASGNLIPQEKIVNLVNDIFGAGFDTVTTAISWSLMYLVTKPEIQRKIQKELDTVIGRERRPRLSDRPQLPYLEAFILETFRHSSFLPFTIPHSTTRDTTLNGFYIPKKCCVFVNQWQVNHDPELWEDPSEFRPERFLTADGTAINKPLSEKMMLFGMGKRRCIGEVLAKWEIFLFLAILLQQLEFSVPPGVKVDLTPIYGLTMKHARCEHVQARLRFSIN", "assay": "Activity of human recombinant CYP1A2 assessed as compound remaining", "format": "ADME", "settings": "recombinant enzyme"}, "Cytochrome P450 2B6": {"target": "T3, Cytochrome P450 2B6 (Homo sapiens, UniProt P20813)", "T3 sequence (P20813 whole entry)": "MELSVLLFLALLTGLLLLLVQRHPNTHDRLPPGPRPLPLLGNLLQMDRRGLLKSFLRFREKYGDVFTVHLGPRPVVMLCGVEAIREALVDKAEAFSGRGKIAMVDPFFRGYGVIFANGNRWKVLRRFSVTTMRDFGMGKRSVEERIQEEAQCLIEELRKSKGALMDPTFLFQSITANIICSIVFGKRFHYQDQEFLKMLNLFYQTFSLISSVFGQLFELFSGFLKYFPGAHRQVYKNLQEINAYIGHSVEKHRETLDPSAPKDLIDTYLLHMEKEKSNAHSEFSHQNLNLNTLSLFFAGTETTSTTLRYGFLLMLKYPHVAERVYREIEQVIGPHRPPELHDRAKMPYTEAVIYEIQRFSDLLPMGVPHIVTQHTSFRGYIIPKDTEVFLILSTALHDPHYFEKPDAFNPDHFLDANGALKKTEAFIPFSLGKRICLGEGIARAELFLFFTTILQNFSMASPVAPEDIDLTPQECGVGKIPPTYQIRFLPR", "assay": "Activity of human recombinant CYP2B6 assessed as compound remaining", "format": "ADME", "settings": "recombinant enzyme"}, "Cytochrome P450 2D6": {"target": "Cytochrome P450 2D6 (Homo sapiens, UniProt P10635)", "sequence (P10635 whole entry)": "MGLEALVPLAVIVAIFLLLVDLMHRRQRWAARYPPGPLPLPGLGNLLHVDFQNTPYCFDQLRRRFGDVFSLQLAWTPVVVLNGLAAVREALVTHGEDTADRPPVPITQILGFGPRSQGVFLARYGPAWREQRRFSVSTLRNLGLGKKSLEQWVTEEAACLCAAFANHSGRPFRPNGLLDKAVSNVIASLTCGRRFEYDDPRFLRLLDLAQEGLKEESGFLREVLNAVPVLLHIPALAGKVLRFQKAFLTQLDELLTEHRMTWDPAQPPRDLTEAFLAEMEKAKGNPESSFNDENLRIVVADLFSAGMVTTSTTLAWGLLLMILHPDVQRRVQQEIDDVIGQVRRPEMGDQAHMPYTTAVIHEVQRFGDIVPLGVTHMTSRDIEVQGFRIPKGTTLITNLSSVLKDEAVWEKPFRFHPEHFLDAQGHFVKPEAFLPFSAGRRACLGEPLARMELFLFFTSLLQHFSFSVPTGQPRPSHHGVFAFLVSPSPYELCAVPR", "assay": "Activity of human recombinant CYP2D6 assessed as compound remaining", "format": "ADME", "settings": "recombinant enzyme"}, "Cytochrome P450 3A4": {"target": "Cytochrome P450 3A4 (Homo sapiens, UniProt P08684)", "sequence (P08684 whole entry)": "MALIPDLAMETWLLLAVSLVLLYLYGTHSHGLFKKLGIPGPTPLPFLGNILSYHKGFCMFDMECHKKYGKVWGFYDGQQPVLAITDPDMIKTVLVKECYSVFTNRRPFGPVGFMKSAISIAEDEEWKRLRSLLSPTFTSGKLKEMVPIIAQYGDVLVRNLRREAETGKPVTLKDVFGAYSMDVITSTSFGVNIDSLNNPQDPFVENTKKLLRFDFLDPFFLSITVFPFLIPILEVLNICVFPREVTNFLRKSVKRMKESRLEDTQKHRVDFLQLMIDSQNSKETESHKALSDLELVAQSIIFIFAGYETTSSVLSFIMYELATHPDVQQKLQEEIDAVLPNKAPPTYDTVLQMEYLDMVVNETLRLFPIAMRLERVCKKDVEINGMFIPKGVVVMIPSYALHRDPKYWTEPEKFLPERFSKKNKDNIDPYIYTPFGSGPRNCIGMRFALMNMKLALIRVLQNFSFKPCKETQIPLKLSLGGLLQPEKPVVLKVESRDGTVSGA", "assay": "Activity of human recombinant CYP3A4 assessed as compound remaining", "format": "ADME", "settings": "recombinant enzyme"}},
  "data": [
    {"smiles": "CC(=O)N1CCN(c2ccc(OCC3COC(Cn4ccnc4)(c4ccc(Cl)cc4Cl)O3)cc2)CC1", "note": "(configuration not stated) [KETOCONAZOLE]", "values": [
      {"measurement": "Stability", "setting": "Liver microsomes [1]", "result": 0.31, "unit": "µM"}
    ]},
    {"smiles": "C=C[C@H]1C[N@@]2CC[C@H]1C[C@@H]2[C@@H](O)c1ccnc2ccc(OC)cc12", "note": "[QUINIDINE]", "values": [
      {"measurement": "Stability", "setting": "Liver microsomes [2]", "result": 0.91, "unit": "µM"}
    ]},
    {"smiles": "Nc1ccc(S(=O)(=O)Nc2ccnn2-c2ccccc2)cc1", "note": "[SULFAPHENAZOLE]", "values": [
      {"measurement": "Stability", "setting": "Liver microsomes [3]", "result": 0.85, "unit": "µM"}
    ]},
    {"smiles": "Cc1nc2c([nH]1)c(=O)n(C)c(=O)n2Cc1ccco1", "note": "[FURAFYLLINE]", "values": [
      {"measurement": "Stability", "setting": "Liver microsomes [4]", "result": 0.12, "unit": "µM"}
    ]},
    {"smiles": "O=C(N/N=C/c1cccs1)c1ccc2c(c1)OCO2", "values": [
      {"measurement": "Activity", "setting": "Cytochrome P450 2C9", "result": 81, "unit": "%"},
      {"measurement": "Activity", "setting": "Cytochrome P450 2C19", "result": 96, "unit": "%"},
      {"measurement": "Activity", "setting": "Cytochrome P450 3A5", "result": 100, "unit": "%"},
      {"measurement": "Activity", "setting": "Cytochrome P450 2C8", "result": 99, "unit": "%"},
      {"measurement": "Activity", "setting": "Cytochrome P450 1A2", "result": 67, "unit": "%"},
      {"measurement": "Activity", "setting": "Cytochrome P450 2B6", "result": 98, "unit": "%"},
      {"measurement": "Activity", "setting": "Cytochrome P450 2D6", "result": 95, "unit": "%"},
      {"measurement": "Activity", "setting": "Cytochrome P450 3A4", "result": 92, "unit": "%"}
    ]}
  ]
}
